According to US11325913B2, “Compounds and methods for the treatment of malaria” (THE BROAD INSTITUTE, INC., priority 2013, dated 2022):
pEC50: −log10 of the molar value.

Tests used:
[1] = test system: P. berghei (ANKA GFP-luc) blood stage parasites; assay: Single dose in vivo efficacy, P. berghei blood stage, bioluminescence imaging; design: species or system CD-1 mice
Method: CD-1 mice (female, 6-7-week-old) were inoculated with 1×10^6 P. berghei (ANKA GFP-luc) blood stage parasites intravenously 24 hours before treatment and compounds were administered as a single 100 or 50 mg/kg dose orally at 0 hour. Parasitemia was monitored by the In vivo Imaging System (IVIS 100, Xenogen; Caliper Life Science) to acquire the bioluminescence signal. Animals with parasitemia exceeding 25% were euthanized.
Infection proceeds rapidly in untreated mice (control), which were euthanized around day 6 of the study. Compound 37 and 68 were tested at different times; thus the artesunate control (ART) is shown for each compound. […] All images are normalized to the same color scale.

[2] = test system: P. berghei strain ANKA; assay: In vivo antimalarial activity, mice infected with P. berghei strain ANKA, three daily oral doses; design: species or system NMVRI mice; details: 50 mg/kg orally, three consecutive daily doses (24, 48, 72 h after infection), day 4, relative to control group
Method: In vivo antimalarial activity for certain compounds of the invention was assessed for groups of three-five female NMVRI mice ([…]) intravenously infected on day 0 with P. berghei strain ANKA (2×10^7 parasitized erythrocytes per ml). In control mice, parasitemia typically rose to ˜40% by day 3 after infection, and control mice died between day 5 and day 7 after infection. Compounds with a dosage of 50 mg/kg were formulated in 7% Tween80/3% ethanol and were administered orally as three consecutive daily doses (24, 48, and 72 h after infection). The blood smears were collected and stained on day 4 after infection. The degree of infection (parasitemia expressed as percent infected erythrocytes) was determined microscopically, with a detection limit of 1 parasite in 10,000 erythrocytes (that is, 0.01%). Activity was calculated as the difference between the mean percent parasitemia for the control and treated groups expressed as a percent relative to the control group. Using this method, a compound of the invention (8R,9R,10S)-10-(hydroxymethyl)-N-(4-methoxyphenyl)-9-(4-(phenylethynyl)phenyl)-1,6-diazabicyclo[6.2.0]decane-6-carboxamide (compound 27) reduced parasitaemia by 57% on day 4. […] Quantification was conducted by comparison to a calibration curve prepared using blank plasma and processed in the same way as the samples.

[3] = test system: P. falciparum Dd2; assay: Activity against the Dd2 strain of P. falciparum (SYBR Green I, 72 h); assay type: cell-based; details: Plasmodium falciparum, DD2, 72 h, P. falciparum Dd2, 72 h incubation
How it was run: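 Parasites in human RBCs at 1% parasitemia and 1.0% hematocrit, exposed to compounds (0.125% DMSO) for 72 h at 37°C under 93% N2/4% CO2/3% O2. SYBR Green I in saponin/Triton lysis buffer added, 24 h staining, fluorescence read at 485/530 nm. EC50 derived against 20 μM mefloquine background and DMSO baseline.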

[4] = test system: P. berghei (ANKA GFP-luc); assay: Prevention of transmission of P. berghei to mosquitoes (oocyst count in midguts); assay type: in vivo, CD-1 mice / Anopheles stephensi mosquitoes; details: single ascending doses (all doses), mosquitoes fed Day 2, midguts dissected Day 9
Method: CD-1 mice were infected with P. berghei (ANKA GFP-luc) for 96 hours prior to treatment with vehicle [70% PEG400 and 30% (5% glucose in H2O)] or single ascending doses of compound 37 (Day 0). Average % parasitemia on Day 0 was 2.1%. On Day 2 of the study, mice were anesthetized and female Anopheles stephensi mosquitoes were allowed to feed on the mice for 20 minutes. On Day 9, the midguts of the mosquitoes were dissected out, and oocysts were enumerated microscopically (12.5× magnification, oocysts visible as puncta in the control, FIG. 2, Panel A).

[5] = test system: P. berghei (ANKA luc-GFP) sporozoites; assay: In vivo P. berghei liver stage assay; design: species or system CD-1 mice; details: single PO dose
Method: CD-1 mice were inoculated (IV) with 1×10^5 P. berghei (ANKA luc-GFP) sporozoites freshly dissected out from A. stephensi and immediately treated with a single dose (PO) of vehicle or compound 37 (25, 5.0, 1.0 or 0.2 mg/kg) at 0 hour. Bioluminescence signals from the transgenic parasites were monitored by the In vivo Imaging System (IVIS 100, Xenogen; Caliper Life Science).
The ED50 for compound 37 in this assay was 1 mg/kg.

[6] = single oral dose, P. berghei blood stage

SMILES | pEC50 [3] | also measured
C[C@H]1[C@H](OC(=O)CCC(=O)O)O[C@@H]2O[C@@]3(C)CC[C@H]4[C@H](C)CC[C@@H]1[C@@]24OO3 [ART, artesunate, reference compound] | – | effect on parasites ([1]; single 100 mg/kg dose): rapid suppression of parasites, but, due to its short half-life, the parasites re-emerge quickly
COc1ccc(NC(=O)N2CCCCN3[C@H](CN)[C@H](c4ccc(C#Cc5ccccc5)cc4)[C@@H]3C2)cc1 [Compound 37, (8R,9S,10S)-10-(aminomethyl)-N-(4-methoxyphenyl)-9-[4-(2-phenylethynyl)phenyl]-1,6-diazabicyclo[6.2.0] decane-6-carboxamide] | 6.83 | oocysts in mosquito midguts [4]: no detectable oocysts; ED50 ([5]; Plasmodium berghei, in Mus musculus, liver stage): 1 mg/kg; parasitemia after sporozoite inoculation ([5]; dosed at ≥5 mg/kg): remained parasite free; time parasitemia repressed ([1]; single 100 mg/kg oral dose): about 1 week; ED25 [1, 6]: 100 mg/kg
COc1ccc(NC(=O)N2CCCCN3[C@H](CN(C)C)[C@H](c4ccc(C#Cc5ccccc5)cc4)[C@@H]3C2)cc1 [Compound 68, (8R,9S,10S)-10-[(dimethylamino)methyl]-N-(4-methoxyphenyl)-9-[4-(2-phenylethynyl)phenyl]-1,6-diazabicyclo[6.2.0] decane-6-carboxamide] | 8.52 | cure of the infected animals ([1]; single 50 mg/kg oral dose): 100%; ED100 [1, 6]: ≤ 50 mg/kg
COc1ccc(NC(=O)N2CCCCN3[C@@H](CNC(C)=O)[C@H](c4ccc(C#Cc5ccccc5)cc4)[C@@H]3C2)cc1 [Compound 82, (8R,9S,10R)-10-(acetamidomethyl)-N-(4-methoxyphenyl)-9-(4-(phenylethynyl)phenyl)-1,6-diazabicyclo[6.2.0] decane-6-carboxamide] | 8.52 | –
O=C(Nc1ccc(OCCN2CCOCC2)cc1)N1CCCCN2[C@H](CO)[C@H](c3ccc(C#Cc4ccccc4)cc3)[C@@H]2C1 [Compound 83, (8R,9R,10S)-10-(hydroxymethyl)-N-(4-(2-morpholinoethoxy)phenyl)-9-(4-(phenylethynyl)phenyl)-1,6-diazabicyclo[6.2.0] decane-6-carboxamide] | 7.62 | –
COc1ccc(NC(=O)N2CCCCN3[C@@H](CN4CCOCC4)[C@H](c4ccc(C#Cc5ccccc5)cc4)[C@@H]3C2)cc1 [Compound 84, (8R,9S,10R)-N-(4-methoxyphenyl)-10-(morpholinomethyl)-9-(4-(phenylethynyl)phenyl)-1,6-diazabicyclo[6.2.0] decane-6-carboxamide] | 7.28 | –
CNC[C@H]1[C@H](c2ccc(C#Cc3ccccc3)cc2)[C@@H]2CN(C(=O)Nc3ccc(OC)cc3)CCCCN12 [Compound 88, (8R,9S,10R)-N-(4-methoxyphenyl)-10-((methylamino)methyl)-9-(4-(phenylethynyl)phenyl)-1,6-diazabicyclo[6.2.0] decane-6-carboxamide] | 7.60 | –
COc1ccc(NC(=O)N2CCCCN3[C@H](CNCC(F)(F)F)[C@H](c4ccc(C#Cc5ccccc5)cc4)[C@@H]3C2)cc1 [Compound 90, (8R,9S,10S)-N-(4-methoxyphenyl)-9-(4-(phenylethynyl)phenyl)-10-(((2,2,2-trifluoroethyl)amino)methyl)-1,6-diazabicyclo[6.2.0] decane-6-carboxamide] | 6.64 | –
COc1ccc(NC(=O)N2CCCCN3[C@@H](CN(C)C)[C@H](c4ccc(C#Cc5ccccc5)cc4)[C@@H]3C2)cc1 [Compound 92, (8R,95S,10R)-10-((dimethylamino)methyl)-N-(4-methoxyphenyl)-9-(4-(phenylethynyl)phenyl)-1,6-diazabicyclo[6.2.0] decane-6-carboxamide] | 6.97 | –
N#Cc1ccc(NC(=O)N2CCCCN3[C@H](CO)[C@H](c4ccc(C#Cc5ccccc5)cc4)[C@@H]3C2)cc1 [Compound 93, (8R,9R,10S)-N-(4-cyanophenyl)-10-(hydroxymethyl)-9-(4-(phenylethynyl)phenyl)-1,6-diazabicyclo[6.2.0] decane-6-carboxamide] | 6.86 | –
CCN(CC)C[C@@H]1[C@H](c2ccc(C#Cc3ccccc3)cc2)[C@@H]2CN(C(=O)Nc3ccc(OC)cc3)CCCCN12 [Compound 94, (8R,9S,10S)-10-((diethylamino)methyl)-N-(4-methoxyphenyl)-9-(4-(phenylethynyl)phenyl)-1,6-diazabicyclo[6.2.0] decane-6-carboxamide] | 7.85 | –
COc1ccc(NC(=O)N(C)C[C@H]2[C@@H](c3ccc(C#Cc4ccccc4)cc3)[C@@H](CO)N2C)cc1 [Compound 95, 1-(((2R,3R,4S)-4-(hydroxymethyl)-1-methyl-3-(4-(phenylethynyl)phenyl)azetidin-2-yl)methyl)-3-(4-methoxyphenyl)-1-methylurea] | 5.30 | –

Now from value to compound, other results behind:

pEC50 [3] | SMILES | also measured
8.40 | COc1ccc(NC(=O)N2CCCCN3[C@H](CO)[C@H](c4ccc(C#Cc5ccccc5)cc4)[C@@H]3C2)cc1 [Compound 27, (8R,9R,10S)-10-(hydroxymethyl)-N-(4-methoxyphenyl)-9-(4-(phenylethynyl)phenyl)-1,6-diazabicyclo[6.2.0] decane-6-carboxamide] | reduction of parasitaemia [2]: 57%
9.40 | COc1ccc(NC(=O)N2CCCCN3[C@@H](COCC(=O)O)[C@H](c4ccc(C#Cc5ccccc5)cc4)[C@@H]3C2)cc1 [Compound 85, 2-(((8R,9R,10R)-6-((4-methoxyphenyl)carbamoyl)-9-(4-(phenylethynyl)phenyl)-1,6-diazabicyclo[6.2.0]decan-10-yl)methoxy)acetic acid] | –
8.70 | COc1ccc(NC(=O)N2CCCCN3[C@@H](COCCC(=O)O)[C@H](c4ccc(C#Cc5ccccc5)cc4)[C@@H]3C2)cc1 [Compound 86, 3-(((8R,9R,10R)-6-((4-methoxyphenyl)carbamoyl)-9-(4-(phenylethynyl)phenyl)-1,6-diazabicyclo[6.2.0]decan-10-yl)methoxy)propanoic acid] | –
9.00 | COC(=O)CCOC[C@@H]1[C@H](c2ccc(C#Cc3ccccc3)cc2)[C@@H]2CN(C(=O)Nc3ccc(OC)cc3)CCCCN12 [Compound 87, methyl 3-(((8R,9R,10S)-6-((4-methoxyphenyl)carbamoyl)-9-(4-(phenylethynyl)phenyl)-1,6-diazabicyclo[6.2.0]decan-10-yl)methoxy)propanoate] | –
8.10 | COc1ccc(NC(=O)N2CCCCN3[C@H](COCCC(=O)N4CCOCC4)[C@H](c4ccc(C#Cc5ccccc5)cc4)[C@@H]3C2)cc1 [Compound 89, (8R,9R,10S)-N-(4-methoxyphenyl)-10-((3-morpholino-3-oxopropoxy)methyl)-9-(4-(phenylethynyl)phenyl)-1,6-diazabicyclo[6.2.0] decane-6-carboxamide] | –
7.85 | COc1ccc(NC(=O)N2CCCCN3[C@@H](COCCC(=O)N4CCOCC4)[C@H](c4ccc(C#Cc5ccccc5)cc4)[C@@H]3C2)cc1 [Compound 91, (8R,9R,10R)-N-(4-methoxyphenyl)-10-((3-morpholino-3-oxopropoxy)methyl)-9-(4-(phenylethynyl)phenyl)-1,6-diazabicyclo[6.2.0] decane-6-carboxamide] | –
